Source: article PMC2762271 (Journal of medicinal chemistry, 2009)

Experiments:
tubulin = test: Inhibition of tubulin polymerization; type: biochemical; conditions: for fold less active than 5t as inhibitor of tubulin assembly: relative to 5t
[1] = test system: L1210, FM3A, Molt4, CEM, and HeLa cell lines; test: Antiproliferative activity, panel of five tumor cell lines; type: cell-based; conditions: on average over the cell lines
L1210 = test: Antiproliferative activity, L1210 cell line; type: cell-based; conditions: Mus musculus, L1210, read-out: IC50 L1210

`Nc1nc(Nc2ccccc2)sc1C(=O)c1ccccc1` [5a] was tested, and the “fold less active than 5t as inhibitor of tubulin assembly” value (tubulin) was 5 fold.
With `COc1cccc(Nc2nc(N)c(C(=O)c3ccccc3)s2)c1` [5f] the “fold less active than 5t as inhibitor of tubulin assembly” value (tubulin) was 10 fold.
`COc1cc(C(=O)c2sc(Nc3ccc(F)cc3)nc2N)cc(OC)c1OC` [5r] was tested, and the “average fold reduction of potency relative to 5q (cell growth inhibition)” value [1] was 27 fold.
In the case of `COc1cc(C(=O)c2sc(Nc3ccc(Cl)cc3)nc2N)cc(OC)c1OC` [5s], the “average fold reduction of potency relative to 5q (cell growth inhibition)” value [1] is reported as 27 fold.
In the case of `COc1cc(C(=O)c2sc(Nc3ccc(C)cc3)nc2N)cc(OC)c1OC` [5t], the “times more potent than 4a (tubulin assembly)” value (tubulin; relative to 4a) is reported as 5 times and the “times more potent than CA-4 (tubulin assembly)” value (tubulin; relative to CA-4) is reported as 2 times.
In the case of `COc1ccc(Nc2nc(N)c(C(=O)c3cc(OC)c(OC)c(OC)c3)s2)cc1` [5u], the “average fold reduction of potency relative to 5q (cell growth inhibition)” value [1] is reported as 83 fold.
Work on `COc1ccc(/C=C\c2cc(OC)c(OC)c(OC)c2)cc1O` [CA-4, combretastatin A-4] yielded an IC50 (L1210) of 2.8 ± 1.1 nM.
